Experimental findings from ChEMBL document CHEMBL1133494, “Inhibitors of bacterial tyrosyl tRNA synthetase: synthesis of four stereoisomeric analogues of the natural product SB-219383” (Bioorg Med Chem Lett, 2000) are described below.

The subject of test [1] is Tyrosyl-tRNA synthetase (Staphylococcus aureus). In words: Inhibitory activity of compound against tyrosyl tRNA synthetase from Staphylococcus aureus was determined up to 3 uM; IA means Inactive.
For test [2], the target named is T1, Tyrosine--tRNA ligase, cytoplasmic (Homo sapiens) (UniProt P54577).
T1 sequence (whole entry): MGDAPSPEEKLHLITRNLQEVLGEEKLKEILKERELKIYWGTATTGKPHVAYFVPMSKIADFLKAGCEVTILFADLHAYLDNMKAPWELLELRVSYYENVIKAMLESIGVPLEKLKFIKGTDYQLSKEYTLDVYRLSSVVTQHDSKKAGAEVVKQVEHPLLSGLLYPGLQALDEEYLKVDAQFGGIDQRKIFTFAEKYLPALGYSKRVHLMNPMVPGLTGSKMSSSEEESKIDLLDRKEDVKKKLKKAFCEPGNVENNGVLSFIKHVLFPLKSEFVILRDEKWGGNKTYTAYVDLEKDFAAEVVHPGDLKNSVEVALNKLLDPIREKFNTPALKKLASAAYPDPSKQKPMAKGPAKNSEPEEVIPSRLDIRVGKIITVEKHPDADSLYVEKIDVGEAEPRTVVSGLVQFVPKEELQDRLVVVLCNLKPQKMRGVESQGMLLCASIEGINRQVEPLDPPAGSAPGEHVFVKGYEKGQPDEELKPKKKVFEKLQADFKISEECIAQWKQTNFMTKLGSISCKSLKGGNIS
In words: Percentage inhibitory activity of compound against tyrosyl tRNA synthetase from mammalian cells was determined at 3 uM.

Each structure is given as a SMILES string.

Turning to `N[C@@H](Cc1ccc(O)cc1)C(=O)N[C@H](C(=O)O)[C@@H]1[C@@H](O)[C@H](O)[C@H](O)CN1O`, the IC50 entry in test [1] is listed as “Not Active”.
On to `N[C@@H](Cc1ccc(O)cc1)C(=O)N[C@@H](C(=O)O)[C@@H]1[C@@H](O)[C@H](O)[C@H](O)CN1O`, for which, in test [1], the IC50 entry is listed as “Not Active”.
On to `N[C@@H](Cc1ccc(O)cc1)C(=O)N[C@H](C(=O)O)[C@H]1[C@H](O)[C@@H](O)[C@@H](O)CN1O`, for which the inhibition (as a rule, the relative decrease from the control value, in per cent) in test [2] was determined as 11%.
